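Step 1: Grow cells in 96-well plates. Step 2: Expose to compound for 48 hours at 5 concentrations. Step 3: Interpolate endpoints linearly; if unreached, use highest concentration. At the TGI there is no net growth.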
Tests used:
Assay in all cases: DTP human tumour cell line panel, 48 h
CAKI-1 renal = test system: CAKI-1 renal
SNB-75 CNS = test system: SNB-75 CNS
SK-MEL-5 melanoma = test system: SK-MEL-5 melanoma
EKVX NSCLC = test system: EKVX NSCLC
SF-295 CNS = test system: SF-295 CNS
BT-549 breast = test system: BT-549 breast
OVCAR-8 ovarian = test system: OVCAR-8 ovarian
HOP-92 NSCLC = test system: HOP-92 NSCLC
ACHN renal = test system: ACHN renal
SK-OV-3 ovarian = test system: SK-OV-3 ovarian
786-0 renal = test system: 786-0 renal
UACC-62 melanoma = test system: UACC-62 melanoma
RXF 393 renal = test system: RXF 393 renal
MCF7 breast = test system: MCF7 breast
HOP-62 NSCLC = test system: HOP-62 NSCLC
SF-268 CNS = test system: SF-268 CNS
MOLT-4 leukemia = test system: MOLT-4 leukemia
TK-10 renal = test system: TK-10 renal
HT29 colon = test system: HT29 colon
T-47D breast = test system: T-47D breast
HCT-116 colon = test system: HCT-116 colon
K-562 leukemia = test system: K-562 leukemia
HCC-2998 colon = test system: HCC-2998 colon
SN12C renal = test system: SN12C renal
A498 renal = test system: A498 renal
MALME-3M melanoma = test system: MALME-3M melanoma
SK-MEL-2 melanoma = test system: SK-MEL-2 melanoma
PC-3 prostate = test system: PC-3 prostate
MDA-MB-231 breast = test system: MDA-MB-231 breast
UACC-257 melanoma = test system: UACC-257 melanoma
SR leukemia = test system: SR leukemia
NCI-H522 lung = test system: NCI-H522 lung
SK-MEL-28 melanoma = test system: SK-MEL-28 melanoma
OVCAR-3 ovarian = test system: OVCAR-3 ovarian
NCI-H460 lung = test system: NCI-H460 lung
MDA-N = test system: MDA-N
A549 NSCLC = test system: A549 NSCLC
NCI-H23 lung = test system: NCI-H23 lung
SW-620 colon = test system: SW-620 colon
LOX IMVI melanoma = test system: LOX IMVI melanoma
HL-60(TB) leukemia = test system: HL-60(TB) leukemia
HCT-15 colon = test system: HCT-15 colon
M14 melanoma = test system: M14 melanoma
HS 578T breast = test system: HS 578T breast
IGROV1 ovarian = test system: IGROV1 ovarian
U251 CNS = test system: U251 CNS
RPMI-8226 leukemia = test system: RPMI-8226 leukemia
SF-539 CNS = test system: SF-539 CNS
MDA-MB-435 = test system: MDA-MB-435
NCI-H226 lung = test system: NCI-H226 lung
KM12 colon = test system: KM12 colon
NCI/ADR-RES ovarian = test system: NCI/ADR-RES ovarian
DU-145 prostate = test system: DU-145 prostate
SNB-19 CNS = test system: SNB-19 CNS
OVCAR-5 ovarian = test system: OVCAR-5 ovarian
CCRF-CEM leukemia = test system: CCRF-CEM leukemia
COLO 205 colon = test system: COLO 205 colon
OVCAR-4 ovarian = test system: OVCAR-4 ovarian
UO-31 renal = test system: UO-31 renal

Compound: c1ccc2nc3cc4c(cc3nc2c1)NC12CCCCC1CC1=C(CCCC1)N42 (stereo not drawn)
- TGI (CAKI-1 renal): > 10 µM
- TGI (SNB-75 CNS): 7.06 µM
- TGI (SK-MEL-5 melanoma): 5.16 µM
- TGI (EKVX NSCLC): > 10 µM
- TGI (SF-295 CNS): > 10 µM
- TGI (BT-549 breast): 4.72 µM
- TGI (OVCAR-8 ovarian): > 10 µM
- TGI (HOP-92 NSCLC): > 10 µM
- TGI (ACHN renal): > 10 µM
- TGI (SK-OV-3 ovarian): > 10 µM
- TGI (786-0 renal): > 10 µM
- TGI (UACC-62 melanoma): 9.63 µM
- TGI (RXF 393 renal): 6.3 µM
- TGI (MCF7 breast): > 10 µM
- TGI (HOP-62 NSCLC): > 10 µM
- TGI (SF-268 CNS): > 10 µM
- TGI (MOLT-4 leukemia): 5.25 µM
- TGI (TK-10 renal): > 10 µM
- TGI (HT29 colon): > 10 µM
- TGI (T-47D breast): > 10 µM
- TGI (HCT-116 colon): > 10 µM
- TGI (K-562 leukemia): 5.5 µM
- TGI (HCC-2998 colon): > 10 µM
- TGI (SN12C renal): 6.48 µM
- TGI (A498 renal): > 10 µM
- TGI (MALME-3M melanoma): 5.33 µM
- TGI (SK-MEL-2 melanoma): 9.53 µM
- TGI (PC-3 prostate): 6.64 µM
- TGI (MDA-MB-231 breast): > 10 µM
- TGI (UACC-257 melanoma): 7.03 µM
- TGI (SR leukemia): 1.51 µM
- TGI (NCI-H522 lung): 8.37 µM
- TGI (SK-MEL-28 melanoma): > 10 µM
- TGI (OVCAR-3 ovarian): 5.03 µM
- TGI (NCI-H460 lung): > 10 µM
- TGI (MDA-N): 7.06 µM
- TGI (A549 NSCLC): > 10 µM
- TGI (NCI-H23 lung): > 10 µM
- TGI (SW-620 colon): > 10 µM
- TGI (LOX IMVI melanoma): > 10 µM
- TGI (HL-60(TB) leukemia): 8.31 µM
- TGI (HCT-15 colon): > 10 µM
- TGI (M14 melanoma): 6.35 µM
- TGI (HS 578T breast): 8.04 µM
- TGI (IGROV1 ovarian): > 10 µM
- TGI (U251 CNS): > 10 µM
- TGI (RPMI-8226 leukemia): 5.52 µM
- TGI (SF-539 CNS): 7.7 µM
- TGI (MDA-MB-435): 3.9 µM
- TGI (NCI-H226 lung): 6.57 µM
- TGI (KM12 colon): 8.14 µM
- TGI (NCI/ADR-RES ovarian): > 10 µM
- TGI (DU-145 prostate): > 10 µM
- TGI (SNB-19 CNS): > 10 µM
- TGI (OVCAR-5 ovarian): > 10 µM
- TGI (CCRF-CEM leukemia): 4.9 µM
- TGI (COLO 205 colon): 3.6 µM
- TGI (OVCAR-4 ovarian): 6.96 µM

Compound: CN(C)CCC(C(=O)C(C)(C)C)c1ccccn1 (stereo not drawn)
- TGI (CAKI-1 renal): > 100 µM
- TGI (SNB-75 CNS): > 100 µM
- TGI (SK-MEL-5 melanoma): > 100 µM
- TGI (EKVX NSCLC): > 100 µM
- TGI (SF-295 CNS): > 100 µM
- TGI (BT-549 breast): > 100 µM
- TGI (OVCAR-8 ovarian): > 100 µM
- TGI (HOP-92 NSCLC): > 100 µM
- TGI (ACHN renal): > 100 µM
- TGI (SK-OV-3 ovarian): > 100 µM
- TGI (786-0 renal): > 100 µM
- TGI (UACC-62 melanoma): > 100 µM
- TGI (RXF 393 renal): > 100 µM
- TGI (MCF7 breast): > 100 µM
- TGI (HOP-62 NSCLC): > 100 µM
- TGI (SF-268 CNS): > 100 µM
- TGI (TK-10 renal): > 100 µM
- TGI (HT29 colon): > 100 µM
- TGI (T-47D breast): > 100 µM
- TGI (HCT-116 colon): > 100 µM
- TGI (K-562 leukemia): > 100 µM
- TGI (HCC-2998 colon): > 100 µM
- TGI (SN12C renal): > 100 µM
- TGI (A498 renal): > 100 µM
- TGI (MALME-3M melanoma): > 100 µM
- TGI (SK-MEL-2 melanoma): > 100 µM
- TGI (PC-3 prostate): > 100 µM
- TGI (MDA-MB-231 breast): > 100 µM
- TGI (UACC-257 melanoma): > 100 µM
- TGI (UO-31 renal): > 100 µM
- TGI (SR leukemia): > 100 µM
- TGI (NCI-H522 lung): > 100 µM
- TGI (SK-MEL-28 melanoma): > 100 µM
- TGI (OVCAR-3 ovarian): 93.6 µM
- TGI (NCI-H460 lung): > 100 µM
- TGI (MDA-N): > 100 µM
- TGI (A549 NSCLC): > 100 µM
- TGI (NCI-H23 lung): > 100 µM
- TGI (SW-620 colon): > 100 µM
- TGI (LOX IMVI melanoma): > 100 µM
- TGI (HL-60(TB) leukemia): > 100 µM
- TGI (HCT-15 colon): > 100 µM
- TGI (M14 melanoma): > 100 µM
- TGI (HS 578T breast): > 100 µM
- TGI (IGROV1 ovarian): > 100 µM
- TGI (U251 CNS): > 100 µM
- TGI (RPMI-8226 leukemia): > 100 µM
- TGI (MDA-MB-435): > 100 µM
- TGI (NCI-H226 lung): > 100 µM
- TGI (KM12 colon): > 100 µM
- TGI (NCI/ADR-RES ovarian): > 100 µM
- TGI (DU-145 prostate): > 100 µM
- TGI (SNB-19 CNS): > 100 µM
- TGI (OVCAR-5 ovarian): > 100 µM
- TGI (CCRF-CEM leukemia): > 100 µM
- TGI (COLO 205 colon): > 100 µM
- TGI (OVCAR-4 ovarian): > 100 µM

Compound: COc1cc2c3c(c1O)C1(C=CC(=O)C=C1)CC3N(C)CC2 (stereo not drawn)
- TGI (CAKI-1 renal): 35.5 µM
- TGI (SNB-75 CNS): 43.4 µM
- TGI (SK-MEL-5 melanoma): 32.6 µM
- TGI (EKVX NSCLC): 25.6 µM
- TGI (SF-295 CNS): 24.3 µM
- TGI (BT-549 breast): 30.6 µM
- TGI (OVCAR-8 ovarian): 38.4 µM
- TGI (HOP-92 NSCLC): 24 µM
- TGI (ACHN renal): 43.4 µM
- TGI (SK-OV-3 ovarian): > 100 µM
- TGI (786-0 renal): 15.6 µM
- TGI (UACC-62 melanoma): 23.1 µM
- TGI (RXF 393 renal): 19.4 µM
- TGI (MCF7 breast): 20.5 µM
- TGI (HOP-62 NSCLC): 25.7 µM
- TGI (SF-268 CNS): 34.6 µM
- TGI (MOLT-4 leukemia): 37.3 µM
- TGI (TK-10 renal): 41.7 µM
- TGI (HT29 colon): 23.4 µM
- TGI (T-47D breast): 26.2 µM
- TGI (HCT-116 colon): 14.5 µM
- TGI (K-562 leukemia): > 100 µM
- TGI (HCC-2998 colon): 24.8 µM
- TGI (SN12C renal): 30.2 µM
- TGI (A498 renal): 48.4 µM
- TGI (MALME-3M melanoma): 24.8 µM
- TGI (SK-MEL-2 melanoma): 25.9 µM
- TGI (PC-3 prostate): 31.1 µM
- TGI (MDA-MB-231 breast): 17.4 µM
- TGI (UACC-257 melanoma): 27.7 µM
- TGI (SR leukemia): 25.8 µM
- TGI (NCI-H522 lung): 7.21 µM
- TGI (SK-MEL-28 melanoma): 26 µM
- TGI (OVCAR-3 ovarian): 22.9 µM
- TGI (NCI-H460 lung): 18.3 µM
- TGI (MDA-N): 24.2 µM
- TGI (A549 NSCLC): > 100 µM
- TGI (NCI-H23 lung): 31.5 µM
- TGI (SW-620 colon): 18.3 µM
- TGI (LOX IMVI melanoma): 9.28 µM
- TGI (HL-60(TB) leukemia): 10.9 µM
- TGI (HCT-15 colon): 19 µM
- TGI (M14 melanoma): 24.5 µM
- TGI (HS 578T breast): > 100 µM
- TGI (IGROV1 ovarian): 25.4 µM
- TGI (U251 CNS): 15.4 µM
- TGI (RPMI-8226 leukemia): 83.7 µM
- TGI (SF-539 CNS): 28.8 µM
- TGI (MDA-MB-435): 23 µM
- TGI (NCI-H226 lung): > 100 µM
- TGI (KM12 colon): 17.5 µM
- TGI (NCI/ADR-RES ovarian): 11 µM
- TGI (DU-145 prostate): 26 µM
- TGI (SNB-19 CNS): 27.9 µM
- TGI (OVCAR-5 ovarian): 36.3 µM
- TGI (CCRF-CEM leukemia): 13.8 µM
- TGI (COLO 205 colon): 18.2 µM
- TGI (OVCAR-4 ovarian): > 100 µM

Reference: PubChem BioAssay (NCI)
